PMC8617063 (Nature Communications, 2021)
Like-named read-outs stand apart in the source and are kept apart here. Ends that are not written are not given here.

Key:
tail bleeding = conditions: rat, in vivo; for RT50 for bleeding: iv
saphenous vein bleeding = conditions: rat, in vivo
ear vein bleeding = conditions: pig, in vivo
[1] = in vivo, cited from earlier work
α-thrombin [2] = biological target: α-thrombin (UniProt P00734)
thrombin = thrombin (Homo sapiens, UniProt P00734); assay: biochemical
α-thrombin [3] = biological target: α-thrombin (UniProt P00734); assay: enzyme inhibition (thrombin amidolytic activity on chromogenic substrate S2238); 0.83 nM thrombin, varying concentrations of peptide, 100 µM S2238 (100-400 µM for ultravariegin); 50 mM Tris pH 7.4, 100 mM NaCl, 1 mg/ml BSA, room temperature; tight-binding fit gives apparent Ki', Ki from Ki' for competitive inhibition; for UV011 Ki = IC50 (non-competitive inhibition assumed)

Row | Compound | Tail bleeding (tail bleeding) [min] | RT50 for bleeding (tail bleeding) | Sephaneous vein bleeding (saphenous vein bleeding) [min] | bleeding time (ear vein bleeding) [min] | Ki (thrombin; Ki (pM)) [pM] | other results
1 | CC[C@H](C)[C@H](NC(=O)[C@H](CCC(=O)O)NC(=O)[C@H](CCC(=O)O)NC(=O)[C@H](Cc1ccccc1)NC(=O)[C@H](CC(=O)O)NC(=O)CNC(=O)[C@H](CC(N)=O)NC(=O)CNC(=O)CNC(=O)CNC(=O)CNC(=O)[C@@H]1CCCN1C(=O)[C@H](CCCNC(=N)N)NC(=O)[C@@H]1CCCN1C(=O)[C@H](N)Cc1ccccc1)C(=O)N1CCC[C@H]1C(=O)N[C@@H](CCC(=O)O)C(=O)N[C@@H](CCC(=O)O)C(=O)N[C@@H](Cc1ccc(O)cc1)C(=O)N[C@@H](CC(C)C)C(=O)O [Bivalirudin, reference compound] | 20.5 | 4.0 mg/kg/h | 4.131 | 45 | – | tail bleeding time (tail bleeding): maximal bleeding; half-life [1]: 25 min; plasma concentration [1]: around 2.7 µM
2 | CC[C@H](C)[C@H](NC(=O)[C@H](C)NC(=O)[C@H](CCC(=O)O)NC(=O)[C@H](Cc1ccccc1)NC(=O)[C@H](CC(=O)O)NC(=O)[C@H](Cc1ccccc1)NC(=O)[C@@H]1CCCN1C(=O)[C@@H]1CCCN1C(=O)[C@H](C)NC(=O)[C@@H](NC(=O)[C@H](CCCCN)NC(=O)[C@H](Cc1cnc[nH]1)NC(=O)[C@H](CCSC)NC(=O)[C@H](CCCCN)NC(=O)[C@@H]1CCCN1C(=O)[C@H](CCC(=O)O)NC(=O)[C@H](C)NC(=O)[C@@H](NC(=O)[C@H](CC(=O)O)NC(=O)CNC(=O)[C@H](CCC(N)=O)NC(=O)[C@H](CC(=O)O)NC(=O)[C@@H](N)CO)C(C)C)[C@@H](C)O)C(=O)N1CCC[C@H]1C(=O)N[C@@H](CCC(=O)O)C(=O)N[C@@H](CCC(=O)O)C(=O)N[C@@H](Cc1ccc(O)cc1)C(=O)N[C@@H](CC(C)C)C(=O)N[C@@H](CC(=O)O)C(=O)N[C@@H](CC(=O)O)C(=O)N[C@@H](CCC(=O)O)C(=O)N[C@@H](CO)C(=O)O [Variegin] | 8 | 5.3 mg/kg | 2.613 | 7.7 ± 2.6 | – | Bleeding, Response time (tail bleeding): 60 min; tail bleeding time (tail bleeding): ~ 30 min; bleeding time (ear vein bleeding; iv, 1 mg/kg): 10.3 min; average plasma concentration [1]: ~ 30 nM; half-life [1]: 52.3 ± 4.4 min; volume of distribution ([1]; pig): around 750 ml/kg
3 | Bivalirudin (peptide) | – | – | – | – | – | Ki (α-thrombin [2]): 1.78 nM
4 | MYSTAPPGDFEEIPDDAIEE [UV011] | – | – | – | – | 1660 ± 759 | –
5 | SDEAVRAIPKMYSTAPPGDFEEIPDDAIEE [Ultravariegin] | 7.5 | 2.0 mg/kg | 2.252 | 6.2 ± 1.3 | 4.02 | Ki (thrombin; Ki, y-intercept of line fitted to Ki′ = Ki (1 + S/Km)): 4.2 ± 0.3 pM
6 | SDEAVRAIPKMYSTAPPGDFETIPDDAIEE [DAA34688.1 repeat 1C] | – | – | – | – | 6.5 ± 1.3 | –
7 | SDEAVRAIPKMYSTAPPGDFETIPDDAIEER [DAA34688.1 repeat 1B] | – | – | – | – | 20.5 ± 4.7 | –
8 | SDEAVRAIPKMYSTAPPGDFETIPDDAIEEREMKAR [DAA34688.1 repeat 1] | – | – | – | – | 43.2 ± 8 | –
9 | SGGHQTAVPKISKQGLGGDFEEIPSDEIIE [Avathrin, reference compound] | – | – | – | – | 624 ± 86 | –
10 | Ultravariegin (peptide) | – | – | – | – | – | Ki (α-thrombin [3]): 0.004 nM
